For orientation: LD50 means the dose at which mortality reaches 50%. Higher therefore signals a less toxic substance. As usually defined, the MIC is the lowest concentration that inhibits growth of the organism.

Data set [1] concerns the target T1, tyrosine specific protein kinase in the epidermal growth factor receptor (Homo sapiens, UniProt P00533).
T1 construct: membrane fraction of human epithelial carcinoma cells A-431; endogenous in cells; host or cells: A-431 human epithelial carcinoma cells, membrane fraction
As to the kind of experiment: Inhibitory activity against tyrosine specific protein kinase (epidermal growth factor receptor kinase), A-431 membrane fraction. The settings on record: EGF, 0° C., 30 min, read-out: 50% inhibitory concentration (tyrosine specific protein kinase) (converted). Format: biochemical. As for the experimental part:
In the above processes of incubation and purification, MH435 was traced by detecting the inhibition activity thereof by measuring the tyrosine specific protein kinase in test samples in accordance with the following method.
[Measurement of tyrosine specific protein kinase activity]
The measurement of tyrosin specific protein kinase activity was carried out by modifying the method of measuring enzyme activity described by G. Carpenter et al. in The Journal of Biological Chemistry, 254, 4874-4891 (1979) using the membrane fraction of human epithelial carcinoma cells A-431 with respect to the tyrosine specific protein kinase in the epidermal growth factor receptor. […] Then, ^32 P adsorbed on the filter paper was measured by counting the radioactivity (a). At the same time, count (b) was measured for the reaction product which was obtained by the same reaction and treated in the same manner as above except that the test sample was excluded, while counts (a') and (b') were measured for the reaction products in which the membrane fractions were further excluded, respectively. The inhibitory ratio with respect to the epidermal growth factor receptor kinase was then calculated from the equation

Data set [2] concerns L1210 leukemia cells. As to the kind of experiment: Effects on cultured carcinoma cells: L1210. The format is cell-based. The settings on record: Mus musculus, 72 h, 3 days, 37° C., cell count. How it is done: (§1) IC50 was measured by inoculating the respective cells in dished (3-5×10^4 cells/dish), incubating the cells for 1 day (at 37° C.; CO2 concentration, 5%), then adding the substance MH435-A, further incubating the resultant mixture for 3 days under the same conditions and finally counting the number of the cells.

The test system of data set [3] is IMC carcinoma cells. The data set can be described thus: Effects on cultured carcinoma cells: IMC carcinoma. The format is cell-based. The following applies: 72 h, 3 days, 37° C., cell count. How it is done: as §1
Data set [4] deals with Ki-NRK cells. As to the kind of experiment: Effects on cultured carcinoma cells: Ki-NRK. Format: cell-based. The settings on record: 72 h, 3 days, 37° C., cell count. How it is done: as §1
The subject of data set [5] is ts Src-NRK (at 33° C.) carcinoma form. The data set can be described thus: Effects on cultured carcinoma cells: ts Src-NRK (at 33° C.) carcinoma form. Format: cell-based. The settings on record: 72 h, 3 days, cell count.
The test system of data set [6] is ts Src-NRK (at 39° C.) normal form. As to the kind of experiment: Effects on cultured carcinoma cells: ts Src-NRK (at 39° C.) normal form. Format: cell-based. The following applies: 72 h, 3 days, cell count.
The subject of data set [7] is A-431 cells. As to the kind of experiment: Effects on cultured carcinoma cells: A-431. The format is cell-based. The settings on record: Homo sapiens, 72 h, 3 days, 37° C., cell count. How it is done:
as §1

Data set [8] in a line: Acute toxicity (LD50). The following applies: mouse, in vivo, ip.
In data set [9] the test system is B. Subtilis PCI 219. As to the kind of experiment: Antimicrobial activity, agar dilution method. The format is cell-based. The following applies: Bacillus subtilis, Muller-Hinton agar dilution. The source says:
(§2) Minimum inhibitory concentrations (MIC) of the substance against various bacteria determined by the agar dilution method using Muller-Hinton culture medium are shown in the following Table 4.
A general note: Agar dilution tests growth on a series of plates holding different concentrations.

Data set [10] relates to B. cereus ATCC 10702. As to the kind of experiment: Antimicrobial activity, agar dilution method. The format is cell-based. The following applies: Bacillus cereus, ATCC10702, Muller-Hinton agar dilution.
Source text: as §2

For data set [11], the system named is Coryn. bovis 1810. As to the kind of experiment: Antimicrobial activity, agar dilution method. The following applies: Corynebacterium bovis, Muller-Hinton agar dilution. The format is cell-based.
Source text: as §2

Data set [12] has as its system E. coli NIHJ. As to the kind of experiment: Antimicrobial activity, agar dilution method. The format is cell-based. The settings on record: Escherichia coli, Muller-Hinton agar dilution.
Source text: as §2

Data set [13] deals with K. pneumoniae PCI 602. As to the kind of experiment: Antimicrobial activity, agar dilution method. Format: cell-based. The following applies: Klebsiella pneumoniae, PCI602, Muller-Hinton agar dilution.
Source text: as §2

The test system of data set [14] is M. lysodelkticus IFO 333. The data set can be described thus: Antimicrobial activity, agar dilution method. The format is cell-based. The settings on record: Muller-Hinton agar dilution.
Source text: as §2

The test system of data set [15] is Prot. vulgaris OX19. The data set can be described thus: Antimicrobial activity, agar dilution method. Format: cell-based. The following applies: Proteus vulgaris, Muller-Hinton agar dilution.
Source text: as §2

For data set [16], the system named is Pseu. aeruginosa A3. The data set can be described thus: Antimicrobial activity, agar dilution method. The format is cell-based. The settings on record: Pseudomonas aeruginosa, Muller-Hinton agar dilution.
Source text: as §2

Data set [17] concerns S. aureus 209 P. As to the kind of experiment: Antimicrobial activity, agar dilution method. The format is cell-based. The following applies: Staphylococcus aureus, Muller-Hinton agar dilution.
Source text: as §2

Data set [18] relates to S. aureus MS8710. As to the kind of experiment: Antimicrobial activity, agar dilution method. The format is cell-based. The following applies: Staphylococcus aureus, Muller-Hinton agar dilution.
Source text: as §2

Data set [19] concerns S. aureus MS9610. The data set can be described thus: Antimicrobial activity, agar dilution method. The format is cell-based. The settings on record: Staphylococcus aureus, Muller-Hinton agar dilution.
Source text: as §2

The test system of data set [20] is S. aureus Smith. The data set can be described thus: Antimicrobial activity, agar dilution method. The format is cell-based. The settings on record: Staphylococcus aureus, Muller-Hinton agar dilution.
Source text: as §2

Data set [21] has as its system Sal. typhi T-63. The data set can be described thus: Antimicrobial activity, agar dilution method. Format: cell-based. The following applies: Salmonella enterica.
Source text: as §2

The test system of data set [22] is Serr. marcessens. The data set can be described thus: Antimicrobial activity, agar dilution method. Format: cell-based. The following applies: Muller-Hinton agar dilution.
Source text: as §2

In brackets after ≈: the same amount, converted by molar mass.

T1 sequence (P00533 25-1210): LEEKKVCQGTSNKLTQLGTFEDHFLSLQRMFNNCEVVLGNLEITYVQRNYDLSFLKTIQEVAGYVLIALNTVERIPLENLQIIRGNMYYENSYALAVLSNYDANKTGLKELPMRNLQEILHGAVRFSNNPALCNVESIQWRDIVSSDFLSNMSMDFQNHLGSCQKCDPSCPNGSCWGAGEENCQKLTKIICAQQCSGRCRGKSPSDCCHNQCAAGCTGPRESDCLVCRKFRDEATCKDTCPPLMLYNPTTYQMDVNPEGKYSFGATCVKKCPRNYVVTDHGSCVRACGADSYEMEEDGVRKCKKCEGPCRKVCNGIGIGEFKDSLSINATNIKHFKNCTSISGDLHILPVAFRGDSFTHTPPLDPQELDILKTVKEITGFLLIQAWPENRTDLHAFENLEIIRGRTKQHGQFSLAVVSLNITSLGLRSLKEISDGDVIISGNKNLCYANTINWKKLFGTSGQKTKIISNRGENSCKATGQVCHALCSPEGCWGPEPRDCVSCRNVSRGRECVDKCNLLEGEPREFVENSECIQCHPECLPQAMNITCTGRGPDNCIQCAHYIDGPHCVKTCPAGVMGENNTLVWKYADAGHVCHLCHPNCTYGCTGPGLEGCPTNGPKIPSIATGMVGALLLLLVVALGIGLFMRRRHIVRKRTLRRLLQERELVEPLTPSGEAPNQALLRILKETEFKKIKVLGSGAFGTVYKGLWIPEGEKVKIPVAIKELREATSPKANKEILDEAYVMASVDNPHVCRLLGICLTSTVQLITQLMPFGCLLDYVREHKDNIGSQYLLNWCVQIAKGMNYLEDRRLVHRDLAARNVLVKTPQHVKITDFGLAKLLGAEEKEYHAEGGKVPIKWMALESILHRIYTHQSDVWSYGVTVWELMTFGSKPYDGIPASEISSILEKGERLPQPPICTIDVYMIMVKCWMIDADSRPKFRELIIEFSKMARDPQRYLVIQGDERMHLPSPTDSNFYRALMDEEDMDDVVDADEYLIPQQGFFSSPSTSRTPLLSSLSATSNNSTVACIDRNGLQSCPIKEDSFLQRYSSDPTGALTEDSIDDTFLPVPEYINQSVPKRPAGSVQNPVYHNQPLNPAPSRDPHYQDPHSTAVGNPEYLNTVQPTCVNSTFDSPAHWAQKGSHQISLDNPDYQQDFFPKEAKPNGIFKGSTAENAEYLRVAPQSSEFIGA

Take `O=CNC=Cc1cc(O)ccc1O` [MH435-A]: the IC50 is 3.07 µM in data set [1]; 2.41 µg/mL (≈ 13.5 µM) in data set [2]; 3.01 µg/mL (≈ 16.8 µM) in data set [3]; 1.7 µg/mL (≈ 9.49 µM) in data set [4]; 2 µg/mL (≈ 11.2 µM) in data set [5]; 3.6 µg/mL (≈ 20.1 µM) in data set [6]. In data set [7], this compound displayed an IC50 of 3.6 µg/mL (≈ 20.1 µM). In data set [8], this compound came in with a 50% lethal dose (LD50) of at least 200 mg/kg. The MIC worked out at 100 µg/mL (≈ 558 µM) in [9]; 100 µg/mL (≈ 558 µM) in data set [10]; 100 µg/mL (≈ 558 µM) in data set [11]; 100 µg/mL (≈ 558 µM) in data set [12]; 100 µg/mL (≈ 558 µM) in [13]; 50 µg/mL (≈ 279 µM) in [14]. Further, the MIC in [15] is 100 µg/mL (≈ 558 µM); in data set [16], 25 µg/mL (≈ 140 µM); in data set [17], 50 µg/mL (≈ 279 µM); in [18], 50 µg/mL (≈ 279 µM); in data set [19], 50 µg/mL (≈ 279 µM); in data set [20], 25 µg/mL (≈ 140 µM). In addition, the MIC in data set [21] and in data set [22] was 100 µg/mL (≈ 558 µM) in each case.

In the case of `O=CNCCc1cc(O)ccc1O` [MH435-B], the IC50 in data set [1] was 33.1 µM. Further, the MIC in [9] was 100 µg/mL (≈ 552 µM); in data set [10], 100 µg/mL (≈ 552 µM); in [11], 100 µg/mL (≈ 552 µM); in data set [12] it was 100 µg/mL (≈ 552 µM); in [13], 100 µg/mL (≈ 552 µM); in data set [14], 50 µg/mL (≈ 276 µM). The MIC in data set [15], in [16], in data set [17], in data set [18], in data set [19] and in data set [20] was 50 µg/mL (≈ 276 µM) throughout. Besides, the MIC in data set [21] and in [22] was 100 µg/mL (≈ 552 µM) in each case.

For the origin of these results see patent US4686308A, “Novel physiologically active substance MH435” (Microbial Chemistry Research Foundation, priority 1985, dated 1987).
